Source: US8076094B2, “Phosphorylation of histone H3 at threonine 11—a novel epigenetic mark for transcriptional regulation” (Universitaetsklinixum Freiburg, priority 2007, dated 2011)
Entries after “also recorded” stand apart in the source; their conditions may differ.

Experiments:
[1] = tested on: PSA and KLK2 promoters in LNCaP cells; assay: Chromatin immunoprecipitation (ChIP) at AREs of PSA and KLK2 promoters in LNCaP cells; assay type: cell-based; conditions: for ligand-induced phosphorylation of H3T11 at AREs of PSA and KLK2 promoters: 1×10^−8 M R1881 45 min, FIG. 2d, e; for S5-P CTD pol II at the promoters of PSA and KLK2 / recruitment of RNA polymerase II (α-NTD pol II): Ro318220 1×10^−5 M, FIG. 3f, g
Procedure: Chromatin Immunoprecipitation ChIP and Re-ChIP experiments were performed as described^5,9. LNCaP cells were cultured for 45 min (FIGS. 1c, 2d, 2e) or 210 min (FIG. 3a, b, f, g) in the presence or absence of 1×10^−8 M R1881 as indicated. Ro318220 (1×10^−5 M) was added to the LNCaP cells (FIG. 3b, g) 60 min before addition of R1881. Three days before harvesting, LNCaP cells were transfected with stealth RNAi (ctr: 5′-[…]-3′ (Sequence Protocol: 5) (SEQ ID NO: 5); PRK1: 5′-[…]-3′ (Sequence Protocol: 6) (SEQ ID NO: 6); Invitrogen) following the manufacturer's instructions. Immunoprecipitation was performed with specific antibodies (α-monoMeH3K9, α-diMeH3K9, α-triMeH3K9, α-acetyl-H3K9/K14, α-H3, α-AR (Upstate Biotechnology), α-S5-P CTD pol II, α-phosphoH3T11 (Abcam), α-NTD pol II (N-20, Santa Cruz), α-LSD1^5, α-JMJD2C^4, and α-PRK1) on protein A-Sepharose 4B (GE-Healthcare). For PCR, 1-5 μl out of 50 μl DNA extract was used. PCR primers for ARE I+II (PSA-459/-121), ARE III (PSA-4288/-3922), KLK2 (−343/-90), GAPDH, and U6 were described previously^5. Western Blot Analysis

[2] = tested on: endogenous PRK1 and AR in LNCaP cells; assay: Western blot analysis of knockdown in LNCaP cells; assay type: cell-based
From the text: (§1) To initiate our study, we analysed the effect of PRK1 knockdown on the expression of endogenous AR target genes.
To determine whether PRK1 controls phosphorylation of H3T11 at promoters of AR-regulated genes in vivo, LNCaP cells were first transfected with either an unrelated control siRNA or a siRNA directed against PRK1, in the presence or absence of R1881, and then subjected to ChIP. Addition of ligand results in phosphorylation of H3T11 at the AREs of the PSA and KLK2 promoters (FIG. 2d, left panel). Androgen-induced phosphorylation at H3T11 is PRK1-dependent since it is blocked by knockdown of PRK1. […] To corroborate that androgen-induced phosphorylation of H3T11 is executed by PRK1, LNCaP cells were cultivated in the presence or absence of Ro318220 and subjected to ChIP.
Experiments were performed as described^2. Western blots were decorated as indicated.

[3] = tested on: AR-dependent reporters in LNCaP cells; assay: AR-dependent reporter (luciferase) assay in LNCaP cells; assay type: cell-based; conditions: R1881, FIG. 5a, b
Procedure: CV1 and LNCaP cells were cultured and transfected as described^2. The following amounts were transfected per well: 500 ng of MMTV-LUC, Probasin-LUC, or PSA-LUC; 25 ng of AR expression plasmid; 200 ng (FIG. 3e) or 400 ng (FIG. 3c, d) expression plasmids of LSD1 or JMJD2C, 150 ng PRK1 K644E, 1000 ng expression plasmid of miRNA-control, miRNA1-PRK1, or miRNA2-PRK1 (FIG. 5a). Cells were cultivated for 18 hours in the presence or absence of 1×10^−10 M R1881 (Sigma), 2.5×10^−6 M (FIG. 3d) or 4.5×10^−6 M (FIG. 3c) Ro318220 (Roche) as indicated. Luciferase activity was assayed as described^2. All experiments were repeated at least four times in duplicate.

PRK1 = assay: In vitro kinase assay; assay type: biochemical
Procedure: To understand how association of PRK1 and AR with chromatin results in increased gene expression, we tested whether PRK1 directly phosphorylates the N-terminal tail of histone H3. Myc-PRK1 and the flag-tagged kinase dead mutant PRK1 K644E^2 were immunoprecipitated from 293 cell lysates with an α-myc or an α-flag antibody, respectively (FIG. 6a, b), and incubated with bacterially expressed and purified GST-H3 1-44 or GST control protein. GST-H3 1-44 is phosphorylated by PRK1, but not by PRK1 K644E (FIG. 2a).
In addition, we incubated nucleosomes purified from HeLa cells with recombinant PRK1 in the presence or absence of Ro318220. […] This phosphorylation is blocked by Ro318220 (FIG. 2c).
The kinase assays were performed as described^11. 10 μg GST-tagged H3 proteins or 1 μg of nucleosomes purified from HeLa cells^12 were incubated with immunoprecipitated PRK1 proteins (FIG. 2a) or 1 μg purified recombinant PRK1 (FIG. 2b, c; ProQinase GmbH) for 0 to 10 min (FIG. 2c) or 20 min (FIG. 2a, b) at 30° C. in kinase buffer containing 20 mM Tris-HCl pH 7.5, 20 μM ATP, 8 mM MgCl2, and 5 μCi (γ-^32P) ATP. The reaction mixture was analysed by SDS-PAGE followed by autoradiography or Western blotting using antibodies as indicated.

[4] = tested on: androgen-induced expression of endogenous AR target genes PSA and KLK2 in LNCaP cells; assay: Quantitative RT-PCR of endogenous AR target genes in LNCaP cells; assay type: cell-based; conditions: presence or absence of R1881, FIG. 1a, b
Procedure: as §1
Quantitative RT-PCR and statistical analysis were performed as described^5. The primers for GAPDH, PSA, and KLK2 were described previously^5.

[5] = R1881 210 min, Ro318220 1×10^−5 M 60 min before R1881, stealth RNAi three days before harvesting, FIG. 3a, b

phosphorylation of GST-H3 1-44 by PRK1 (PRK1; immunoprecipitated Myc-PRK1, 20 min at 30° C., FIG. 2a) | phosphorylation of nucleosomes at H3T11 by PRK1 (PRK1; nucleosomes from HeLa cells, recombinant PRK1, 0 to 10 min, Western blot α-phosphoH3T11, FIG. 2c) | Compound | ligand-induced phosphorylation of H3T11 at AREs of PSA and KLK2 promoters [1] | ligand-induced acetylation of H3K9/K14 [1, 5] | ligand-induced demethylation of tri-, di-, and monomethyl H3K9 [1, 5] | S5-P CTD pol II at the promoters of PSA and KLK2 ([1]; R1881 210 min) | recruitment of RNA polymerase II (α-NTD pol II) ([1]; R1881 210 min) | down-regulation of endogenous PRK1 ([2]; FIG. 1a, 2d right panels) | levels of endogenous AR ([2]; FIG. 2d right panel) | ligand-induced expression of AR-dependent reporters [3] | androgen-induced expression of endogenous AR target genes (PSA, KLK2) [4]
 |  | 5′-GAAAGUCCUAGAUCCACACGCAAAU-3′ (siRNA; Stealth RNAi from Invitrogen, chemistry not given here) [siRNA directed against PRK1] | blocked | blocked | severely impaired | loss | not affected | depletion is specific | does not affect |  | 
completely blocks | blocked | Cn1cc(C2=C(c3cn(CCCSC(=N)N)c4ccccc34)C(=O)NC2=O)c2ccccc21 [Ro318220] | efficiently blocks |  | loss | loss | not affected |  |  | severely reduce; also recorded: strong decrease | reduce expression; also recorded: severely impedes
